This is an account of results in US11826351B2, “Compounds useful as kinase inhibitors” (Loxo Oncology, Inc., priority 2015, dated 2023).

Read-outs that look alike come from different tables or passages of the source.

Assay [1] deals with T1, Recombinant BTK^C481S kinase (Homo sapiens, UniProt Q06187, C481S).
T1 construct: purchased SignalChem
Put plainly: BTK C481S binding affinity (LanthaScreen TR-FRET). Conditions: Kinase Tracer 236, 5 h incubation. How it is done:
(§1) BTK^C481S binding affinity of each compound tested was determined using a time-resolved fluorescence resonance energy transfer (TR-FRET) methodology. 5 nM Recombinant BTK^WT kinase, varying concentrations of inhibitor, 2 nM LanthaScreen™ Eu anti-His Antibody and 30 nM Kinase Tracer 236 was incubated in 1× LanthaScreen™ Kinase Buffer A for 5 h. Recombinant BTK^C481S kinase was purchased from SignalChem and all LanthaScreen™ components were purchased from Invitrogen. Measurements were performed in a reaction volume of 30 μL using half-area 96-well assay plates. The TR-FRET signal was read on a plate reader with an excitation wavelength of 340 nm and detection wavelengths of 615 and 665 nm. Binding affinity was determined for each compound by measuring TR-FRET signal at various concentrations of compound and plotting the relative fluorescence units against the inhibitor concentration to estimate the IC50 from log[Inhibitor] vs response using the Variable Slope model in Graphpad prism from Graphpad software (San Diego, Calif.).
(TR-FRET usually uses a lanthanide donor and a delayed reading to cut background.)

Assay [2] has as its system OCI-Ly10 human DLBCL cells. Nature of the assay: OCI-Ly10 anti-proliferative activity (Resazurin). Conditions: OCI-Ly10 cells, 72 h compound treatment, Resazurin, read-out: Proliferation Assay OCI-Ly10-20% FBS. It is filed as cell-based. The protocol:
Compounds were assayed for effects on the growth of OCI-Ly10 human DLBCL cells that are dependent on NFκB signalling. […] Cells were then plated at 7.5×10^3 cells per well in 96-well plates in varying concentrations of compound and incubated for 72 h at 37° C. An additional plate of cells to be used as the Day 0 read was seeded without compound addition, Resazurin was added to each well, incubated for 5 h and the fluorescence measured at 590 nm. After 72 h of compound treatment, Resazurin was added to each well of the compound treated plates, incubated for 5 h and the fluorescence measured at 590 nm. The IC50 was then calculated by subtracting the average Day 0 value from each well value from the treated plates, each treatment was then calculated as a percentage of the DMSO control and the percentages plotted against the inhibitor concentration to estimate the IC50 from log[Inhibitor] vs response using the Variable Slope model in Graphpad prism from Graphpad software (San Diego, Calif.).
Background: The colour change of resazurin is a common sign of viable cells or microbes.

The target of assay [3] is T2, Recombinant BTK^WT kinase (Homo sapiens, UniProt Q06187).
T2 construct: purchased Invitrogen
Nature of the assay: BTK WT binding affinity (LanthaScreen TR-FRET). The note with it: Kinase Tracer 236, 5 h incubation. How it is done:
as §1, with “BTK^WT binding” for “BTK^C481S binding”, “methodology. 2.5” for “methodology. 5”, “and 15” for “and 30”, “Recombinant BTK” for “Recombinant BTK^C481S”, “kinase” for “kinase was purchased from SignalChem”

In another assay the target is T3, Recombinant EGFR (Homo sapiens, UniProt P00533).
T3 construct: purchased Invitrogen
Nature of the assay: EGFR binding affinity (LanthaScreen TR-FRET). Conditions: Kinase Tracer 199, 5 h incubation. How it is done:
EGFR binding affinity was determined using a time-resolved fluorescence resonance energy transfer (TR-FRET) methodology. […] Recombinant EGFR and all LanthaScreen™ components were purchased from Invitrogen. Measurements were performed in a reaction volume of 30 μL using half-area 96-well assay plates. […] Binding affinity was determined for each compound by measuring TR-FRET signal at various concentrations of compound and plotting the relative fluorescence units against the inhibitor concentration to estimate the IC50 from log[Inhibitor] vs response using the Variable Slope model in Graphpad prism from Graphpad software (San Diego, Calif.).

T3 sequence (P00533 25-1210): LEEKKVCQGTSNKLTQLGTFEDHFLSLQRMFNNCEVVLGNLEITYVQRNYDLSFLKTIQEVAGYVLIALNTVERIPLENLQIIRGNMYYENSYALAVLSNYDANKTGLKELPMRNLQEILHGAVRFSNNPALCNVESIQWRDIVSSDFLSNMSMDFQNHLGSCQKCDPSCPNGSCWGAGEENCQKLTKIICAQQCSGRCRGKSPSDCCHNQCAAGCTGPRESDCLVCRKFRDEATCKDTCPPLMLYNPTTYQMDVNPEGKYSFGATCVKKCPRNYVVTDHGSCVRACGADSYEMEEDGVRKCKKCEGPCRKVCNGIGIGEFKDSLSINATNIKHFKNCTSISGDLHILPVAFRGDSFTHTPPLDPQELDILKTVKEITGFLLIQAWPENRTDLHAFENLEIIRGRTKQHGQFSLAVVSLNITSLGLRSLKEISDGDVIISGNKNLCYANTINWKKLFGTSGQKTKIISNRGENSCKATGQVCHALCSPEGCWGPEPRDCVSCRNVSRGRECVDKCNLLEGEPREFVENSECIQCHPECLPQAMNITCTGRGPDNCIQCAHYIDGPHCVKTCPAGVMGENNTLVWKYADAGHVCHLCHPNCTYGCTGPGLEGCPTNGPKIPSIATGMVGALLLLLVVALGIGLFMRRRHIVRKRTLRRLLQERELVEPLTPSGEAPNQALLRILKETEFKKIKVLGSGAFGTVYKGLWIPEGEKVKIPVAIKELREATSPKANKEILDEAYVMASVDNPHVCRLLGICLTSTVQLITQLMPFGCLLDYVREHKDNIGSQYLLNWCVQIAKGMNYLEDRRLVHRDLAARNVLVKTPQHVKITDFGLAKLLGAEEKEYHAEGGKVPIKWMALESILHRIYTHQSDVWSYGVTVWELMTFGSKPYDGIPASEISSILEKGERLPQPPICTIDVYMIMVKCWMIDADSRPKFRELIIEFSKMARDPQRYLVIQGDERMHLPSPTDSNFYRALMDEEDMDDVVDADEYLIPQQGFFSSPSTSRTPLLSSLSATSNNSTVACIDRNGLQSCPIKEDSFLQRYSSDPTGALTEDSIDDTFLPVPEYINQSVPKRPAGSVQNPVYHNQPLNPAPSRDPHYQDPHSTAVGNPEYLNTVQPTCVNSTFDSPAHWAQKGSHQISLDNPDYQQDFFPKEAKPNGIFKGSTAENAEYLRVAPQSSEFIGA
T1 sequence (Q06187 whole entry C481S): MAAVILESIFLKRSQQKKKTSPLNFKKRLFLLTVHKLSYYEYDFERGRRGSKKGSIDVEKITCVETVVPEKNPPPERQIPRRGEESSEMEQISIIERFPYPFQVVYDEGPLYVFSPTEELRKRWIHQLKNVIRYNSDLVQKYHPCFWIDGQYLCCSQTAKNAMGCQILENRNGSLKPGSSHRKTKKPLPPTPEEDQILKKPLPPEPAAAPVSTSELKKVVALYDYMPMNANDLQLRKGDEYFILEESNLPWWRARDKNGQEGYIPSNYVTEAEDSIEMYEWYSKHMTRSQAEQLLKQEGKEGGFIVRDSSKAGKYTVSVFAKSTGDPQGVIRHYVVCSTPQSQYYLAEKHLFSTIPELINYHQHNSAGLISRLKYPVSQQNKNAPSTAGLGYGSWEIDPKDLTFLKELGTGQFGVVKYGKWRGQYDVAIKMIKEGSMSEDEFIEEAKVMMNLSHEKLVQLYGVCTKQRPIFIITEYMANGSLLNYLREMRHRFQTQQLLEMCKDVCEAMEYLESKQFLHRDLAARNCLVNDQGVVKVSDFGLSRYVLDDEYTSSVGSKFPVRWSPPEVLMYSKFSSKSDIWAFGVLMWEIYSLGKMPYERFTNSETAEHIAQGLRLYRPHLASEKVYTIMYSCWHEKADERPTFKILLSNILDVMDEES
T2 sequence (Q06187 whole entry): as the sequence (Q06187 whole entry C481S) above, with S481C counted along it

For `COc1ccc(F)cc1C(=O)NCc1ccc(-c2nn(C3CCCOC3)c(N)c2C(N)=O)cc1` (stereo not drawn) [Example 113, 5-amino-3-[4-[[(5-fluoro-2-methoxy-benzoyl)amino]methyl]phenyl]-1-tetrahydropyran-3-yl-pyrazole-4-carboxamide], the IC50 was below 10 nM in assay [1]; 10 to 100 nM in assay [2] (Homo sapiens, OCI-Ly10, 72 h); below 10 nM in assay [3]; 1000 to 10000 nM on Recombinant EGFR.

`COc1ccccc1C(=O)NCc1ccc(-c2nn(-c3ccc(F)cc3)c(N)c2C(N)=O)cc1` [Example 43, 5-amino-1-(4-fluorophenyl)-3-[4-[[(2-methoxybenzoyl)amino]methyl]phenyl]pyrazole-4-carboxamide]: the IC50 in assay [1] was below 10 nM; in assay [2] (Homo sapiens, OCI-Ly10, 72 h), 10 to 100 nM; in assay [3], below 10 nM; on Recombinant EGFR, 100 to 1000 nM.

As for `CNc1c(C(N)=O)c(-c2ccc(CNC(=O)c3ccccc3OC)cc2)nn1C1CCOC1` (stereo not drawn) [Example 97, 3-[4-[[(2-methoxybenzoyl)amino]methyl]phenyl]-5-(methylamino)-1-tetrahydrofuran-3-yl-pyrazole-4-carboxamide], the IC50 in assay [1] is below 10 nM; in assay [2] (Homo sapiens, OCI-Ly10, 72 h) it was 1000 to 10000 nM; in assay [3], 10 to 100 nM; at Recombinant EGFR, 1000 to 10000 nM.

For `CCOC(=O)C1CCCC(n2nc(-c3ccc(CNC(=O)c4ccccc4OC)cc3)c(C(N)=O)c2N)C1` (single isomer, unassigned) [Example 55, ethyl 3-[5-amino-4-carbamoyl-3-[4-[[(2-methoxybenzoyl)amino]methyl]phenyl]pyrazol-1-yl]cyclohexanecarboxylate], the IC50 in assay [1] was below 10 nM; in assay [2] it was 10 to 100 nM; in assay [3], below 10 nM; on Recombinant EGFR, 100 to 1000 nM.

On to `COc1ccccc1C(=O)NCc1ccc(-c2nn(C3CN(C)CC3(F)F)c(N)c2C(N)=O)cc1` (stereo not drawn) [Example 167, 5-amino-1-(4,4-difluoro-1-methyl-pyrrolidin-3-yl)-3-[4-[[(2-methoxybenzoyl)amino]methyl]phenyl]pyrazole-4-carboxamide], for which the IC50 is below 10 nM in assay [1]; 10 to 100 nM in assay [2] (Homo sapiens, OCI-Ly10, 72 h); below 10 nM in assay [3]; 1000 to 10000 nM on Recombinant EGFR.

With `COc1ccccc1C(=O)NCc1ccc(-c2nn(C3CCOC(C(F)(F)F)C3)c(N)c2C(N)=O)cc1` (stereo not drawn) [Example 111, 5-amino-3-[4-[[(2-methoxybenzoyl)amino]methyl]phenyl]-1-[2-(trifluoromethyl)tetrahydropyran-4-yl]pyrazole-4-carboxamide], the IC50 in assay [1] was below 10 nM; in assay [2] (Homo sapiens, OCI-Ly10, 72 h), 100 to 1000 nM; in assay [3], below 10 nM; at Recombinant EGFR it was 100 to 1000 nM.

Regarding `CCNc1c(C(N)=O)c(-c2ccc(CNC(=O)c3ccccc3OC)cc2)nn1C1CCCC1` [Example 73, 1-cyclopentyl-5-(ethylamino)-3-[4-[[(2-methoxybenzoyl)amino]methyl]phenyl]pyrazole-4-carboxamide], the IC50 in assay [1] was below 10 nM; in assay [2] (Homo sapiens, OCI-Ly10, 72 h), 10 to 100 nM; in assay [3], below 10 nM; at Recombinant EGFR, 100 to 1000 nM.

With `COc1ccccc1C(=O)NCc1ccc(-c2nn(C3CCOC3)c(N)c2C(N)=O)cc1F` (stereo not drawn) [Example 109, 5-amino-3-[3-fluoro-4-[[(2-methoxybenzoyl)amino]methyl]phenyl]-1-tetrahydrofuran-3-yl-pyrazole-4-carboxamide], the IC50 in assay [1] was below 10 nM; in assay [2] (Homo sapiens, OCI-Ly10, 72 h), 100 to 1000 nM; in assay [3], below 10 nM; at Recombinant EGFR it was 1000 to 10000 nM.

In the case of `COc1ccccc1C(=O)NCc1ccc(-c2nn(C3CCOCC3F)c(N)c2C(N)=O)cc1` (single isomer, unassigned) [Example 96, 5-amino-1-[3-fluorotetrahydropyran-4-yl]-3-[4-[[(2-methoxybenzoyl)amino]methyl]phenyl]pyrazole-4-carboxamide], the IC50 is below 10 nM in assay [1], 10 to 100 nM in assay [2], below 10 nM in assay [3] and 1000 to 10000 nM at Recombinant EGFR.
